Among the data in ChEMBL document CHEMBL3352159, “Protolichesterinic acid derivatives: α-methylene-γ-lactones as potent dual activators of PPARγ and Nrf2 transcriptional factors” (Bioorg Med Chem Lett, 2014) are IC50 and Activity values, retold here.

As usually defined, the IC50 is the concentration that inhibits the measured activity by half. High values mean weaker potency, low ones greater potency.

Experiment [1] is described as follows: Cytotoxicity against human A375M cells after 4 days by MTT assay. Conditions: 96 h. The experiment is classed as functional, cell-based. In general terms: Formazan colour is commonly taken as a measure of viable cells.
The target of experiment [2] is T1, Peroxisome proliferator-activated receptor gamma (Mus musculus) (UniProt P37238).
T1 sequence (whole entry): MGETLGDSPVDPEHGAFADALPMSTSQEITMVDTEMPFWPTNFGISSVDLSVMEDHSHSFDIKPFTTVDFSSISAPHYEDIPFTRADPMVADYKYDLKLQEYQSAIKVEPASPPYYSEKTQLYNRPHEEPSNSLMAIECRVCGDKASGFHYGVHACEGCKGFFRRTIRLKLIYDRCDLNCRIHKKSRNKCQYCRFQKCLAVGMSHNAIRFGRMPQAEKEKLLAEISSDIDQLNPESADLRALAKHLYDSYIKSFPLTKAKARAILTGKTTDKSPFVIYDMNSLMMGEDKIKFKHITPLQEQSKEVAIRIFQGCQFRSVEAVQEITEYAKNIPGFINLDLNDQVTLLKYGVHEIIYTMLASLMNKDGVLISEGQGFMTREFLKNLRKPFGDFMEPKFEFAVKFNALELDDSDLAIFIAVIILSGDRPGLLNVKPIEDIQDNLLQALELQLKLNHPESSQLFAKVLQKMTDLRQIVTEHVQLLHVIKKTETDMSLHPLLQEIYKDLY
The experiment is described as follows: Activation of PPARgamma in mouse peritoneal macrophages assessed as increase in Dectin-1 mRNA expression treated for 5 hrs by qRT-PCR analysis. On the technique in general: Real-time PCR tracks product formation cycle by cycle.

For experiment [3], the system named is Peritoneal macrophage cell. The experiment is described as follows: Induction of Dectin-1 mRNA expression in mouse peritoneal macrophages isolated from PPARgamma -/- mouse treated at 1 uM for 5 hrs by qRT-PCR analysis. The experiment is classed as functional, cell-based.
The test system of experiment [4] is Peritoneal macrophage cell. In words: Induction of Dectin-1 mRNA expression in mouse peritoneal macrophages isolated from PPARgamma -/- mouse treated at 5 uM for 5 hrs by qRT-PCR analysis. The experiment is classed as functional, cell-based.
Experiment [5] can be described thus: Cytotoxicity against mouse peritoneal macrophages after 24 hrs. The experiment is classed as cell-based. Conditions: Peritoneal macrophage cell.
For experiment [6], the target named is Nuclear factor erythroid 2-related factor 2 (Mus musculus) (UniProt Q60795). The experiment is described as follows: Activation of Nrf2 in mouse peritoneal macrophages assessed as increase in NQO-1 mRNA expression treated for 5 hrs by qRT-PCR analysis.
Sequence of Nuclear factor erythroid 2-related factor 2 (Mus musculus) (Q60795 whole entry, looked up): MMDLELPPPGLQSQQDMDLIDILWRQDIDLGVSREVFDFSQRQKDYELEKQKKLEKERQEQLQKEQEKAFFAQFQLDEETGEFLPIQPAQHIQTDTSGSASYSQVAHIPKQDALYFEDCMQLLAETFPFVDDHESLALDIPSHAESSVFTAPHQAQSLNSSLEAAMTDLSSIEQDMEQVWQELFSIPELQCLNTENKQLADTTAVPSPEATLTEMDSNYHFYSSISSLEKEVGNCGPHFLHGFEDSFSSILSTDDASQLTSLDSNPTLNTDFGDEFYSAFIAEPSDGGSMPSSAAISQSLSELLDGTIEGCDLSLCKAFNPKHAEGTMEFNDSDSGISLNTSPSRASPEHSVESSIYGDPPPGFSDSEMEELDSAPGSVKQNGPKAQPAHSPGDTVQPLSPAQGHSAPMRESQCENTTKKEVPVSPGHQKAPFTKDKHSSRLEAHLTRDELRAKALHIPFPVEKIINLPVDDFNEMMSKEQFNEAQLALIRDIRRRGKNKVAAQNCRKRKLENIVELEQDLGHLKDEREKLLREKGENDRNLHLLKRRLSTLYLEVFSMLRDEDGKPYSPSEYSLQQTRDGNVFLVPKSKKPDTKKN
The test system of experiment [7] is Peritoneal macrophage cell. The experiment is described as follows: Induction of NQO-1 mRNA expression in mouse peritoneal macrophages isolated from PPARgamma -/- mouse treated at 1 uM for 5 hrs by qRT-PCR analysis. In kind it is functional, cell-based.
The subject of experiment [8] is Peritoneal macrophage cell. The experiment is described as follows: Induction of CD36 mRNA expression in mouse peritoneal macrophages isolated from PPARgamma -/- mouse treated at 1 uM for 5 hrs by qRT-PCR analysis. The experiment is classed as functional, cell-based.
For experiment [9], the target named is T1, Peroxisome proliferator-activated receptor gamma (Mus musculus). The experiment is described as follows: Activation of PPARgamma in mouse peritoneal macrophages assessed as increase in CD36 mRNA expression treated for 5 hrs by qRT-PCR analysis.
For experiment [10], the target named is Nuclear factor erythroid 2-related factor 2 (Mus musculus) (UniProt Q60795). In words: Activation of Nrf2 in mouse peritoneal macrophages assessed as increase in HO-1 mRNA expression treated for 5 hrs by qRT-PCR analysis.
Experiment [11] has as its system Peritoneal macrophage cell. In words: Induction of HO-1 mRNA expression in mouse peritoneal macrophages isolated from PPARgamma -/- mouse treated at 1 uM for 5 hrs by qRT-PCR analysis. In kind it is functional, cell-based.

Activity calls are given as the source filed them. The rule behind the calls is not given here. Bounds are passed on as bounds.

Turning to `C=C1C(=O)OC(CCCCCCCCCCCCC)C1CC` (mixture of isomers), inhibition in [1] was half-maximal at 4.1 µM (IC50).

Regarding `C=C1C(=O)OC(CCCC)C1CCc1ccccc1` (stereo unspecified), the IC50 in experiment [1] worked out at 5.5 µM.

`C=C1C(=O)OC(c2ccccc2)C1CCc1ccccc1` (mixture of isomers) returned an IC50 in [1] of 2.8 µM.

Regarding `CCCCCCCCCCCCC[C@H]1OC(=O)C(C)=C1C(=O)O`, the IC50 in experiment [1] is 72 µM; in experiment [5], above 100 µM. Moreover, in [2], the result was Active. Also, the outcome in experiment [3] and in [4] was inactive.

Regarding `C=C1C(=O)OC(CCc2ccccc2)C1CCc1ccccc1` (stereo unspecified), it took 2.7 µM to reach half-maximal inhibition in experiment [1] (IC50).

As to `C=C1C(=O)O[C@@H](CCCCCCCCCCCCC)[C@@H]1C(=O)O` [PROTOLICHESTERINIC ACID], the IC50 in experiment [1] is 8.6 µM.

`C=C1C(=O)OC(c2ccccc2)C1c1ccccc1` (mixture of isomers) returned an IC50 in experiment [1] of 6.3 µM.

For the compound `CN(CCOc1ccc(CC2SC(=O)NC2=O)cc1)c1ccccn1` (stereo unspecified), the outcome in experiment [2] was Active. Moreover, the result in experiment [3] and in experiment [4] was inactive.

As for `C=C1CC(CCCCCCCCCCCCC)OC1=O` (stereo unspecified), in [1], the midpoint of inhibition, the IC50, lay at 3.9 µM.

Turning to `C=C1CC(CCCC)OC1=O` (stereo unspecified), the figures for the IC50 in [1] and in experiment [5] were 17.3 µM and 31.2 µM, respectively. Moreover, the result in [2], in experiment [6], in [9] and in experiment [10] was Active. The result in experiment [3], in experiment [4], in experiment [7], in experiment [8] and in experiment [11] was inactive.

Take `CCCCCCCCCCCCCC1C=C(C)C(=O)O1` (racemic): the IC50 in experiment [1] and in [5] was above 100 µM in each case. Further, the result in experiment [2] was Active. Further, the result in experiment [3] and in [4] was inactive.

For the compound `C=C1C(=O)OC(c2ccccc2)C1CCCC` (mixture of isomers), the values for the IC50 in [1] and in experiment [5] were 7.8 µM and 12.7 µM, respectively. The outcome in [2], in experiment [6], in [9] and in experiment [10] was Active. The result in experiment [3], in experiment [4], in experiment [7], in [8] and in experiment [11] was inactive.

As for `C=C1CC(c2ccccc2)OC1=O` (stereo unspecified), the IC50 in [1] stood at 6.7 µM.

`C=C1C(=O)OC(CCCCCCCCCCCCC)C1CCc1ccccc1` (mixture of isomers) gave an IC50 in experiment [1] of 3.3 µM.

`C=C1C(=O)OC(CCc2ccccc2)C1CCCC` (mixture of isomers): 5 µM corresponded to half-maximal inhibition in experiment [1] (IC50).

As for `C=C1CC(CCc2ccccc2)OC1=O` (stereo unspecified), the IC50 in [1] came out at 8.7 µM.
